Here are results for 2 molecules from US5294716A, “Chemical process for making angiotesin II antagonist compounds” (Imperial Chemical Industries PLC, priority 1991, dated 1994).

Counter-ions that a name gives are not always drawn. Like-named read-outs stand apart in the source and are kept apart here.

The target in assay [1] is T1, AII receptors (guinea pig adrenal gland cell surface membranes) (Cavia porcellus, UniProt Q9WV26).
T1 construct: from tissue; host or cells: guinea pig adrenal gland, cell surface membrane fraction
T1 sequence (Q9WV26 1-359): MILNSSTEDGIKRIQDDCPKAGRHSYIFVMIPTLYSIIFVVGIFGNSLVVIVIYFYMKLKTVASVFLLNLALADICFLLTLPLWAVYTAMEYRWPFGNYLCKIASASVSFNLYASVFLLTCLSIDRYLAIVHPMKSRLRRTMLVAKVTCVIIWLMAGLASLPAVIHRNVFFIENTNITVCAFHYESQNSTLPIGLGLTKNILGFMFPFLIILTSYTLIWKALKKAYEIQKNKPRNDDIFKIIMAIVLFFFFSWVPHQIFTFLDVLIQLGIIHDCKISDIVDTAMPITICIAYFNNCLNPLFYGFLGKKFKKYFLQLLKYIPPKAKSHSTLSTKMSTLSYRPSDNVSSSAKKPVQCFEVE
The experiment in a line: Test A: displacement of radiolabelled AII binding to cell surface membrane fraction (guinea pig adrenal gland). How it is done: The antagonism of one or more of the physiological actions of AII and, in particular, the antagonism of the interaction of AII with the receptors which mediate its effects on a target tissue, may be assessed using one or more of the following, routine laboratory procedures: Test A: This in vitro procedure involves the incubation of the test compound initially at a concentration of 100 micromolar (or less) in a buffered mixture containing fixed concentrations of radiolabelled AII and a cell surface membrane fraction prepared from a suitable angiotensin target tissue. In this test, the source of cell surface membranes is the guinea pig adrenal gland which is well known to respond to AII. Interaction of the radiolabelled AII with its receptors (assessed as radiolabel bound to the particulate membrane fraction following removal of unbound radiolabel by a rapid filtration procedure such as is standard in such studies) is antagonized by compounds which also bind to the membrane receptor sites and the degree of antagonism (observed in the test as displacement of membrane-bound radioactivity) is determined readily by comparing the receptor-bound radioactivity in the presence of the test compound at the specified test concentration with a control value determined in the absence of the test compound. […]

For assay [2], the system named is angiotensin II-induced pressor responses. The experiment in a line: Test C: in vivo antagonism of angiotensin II-induced pressor responses in terminally-anaesthetised or conscious rats. The following applies: Rattus norvegicus, iv, i.v. administration. An excerpt: The antagonism of one or more of the physiological actions of AII and, in particular, the antagonism of the interaction of AII with the receptors which mediate its effects on a target tissue, may be assessed using one or more of the following, routine laboratory procedures: Test C: This in vivo test involves using terminally-anaesthetised or conscious rats in which an arterial catheter has been implanted under anaesthesia for the measurement of changes in blood pressure. The AII antagonistic effects of the test compound following oral or parenteral administration, are assessed against angiotensin II-induced pressor responses. To ensure that the effect is specific, the effect of the test compound on vasopressin-induced pressor responses may also be determined in the same preparation.

In general, ED50 refers to the dose that gives a 50% effect, or the effect in half of the subjects.

On to `Cc1cc(OCc2ccc(-c3ccccc3-c3nn[nH]n3)cc2)c2c(n1)CCCC2` [2-methyl-5,6,7,8-tetrahydro-4-[(2'-(1H-tetrazol-5-yl)methoxy]quinoline hydrochloride], for which the IC50 in assay [1] (read-out: IC50 (concentration for 50% displacement of radiolabelled AII binding)) is 30 nM. The molecule further gave a 50% effective dose (ED50) in assay [2] of 0.28 mg/kg.
Regarding `Cc1cc(OCc2ccc(-c3ccccc3-c3nnn[nH]3)cc2)c2ccccc2n1.Cl` [2-methyl-4-[(2'-(1H-tetrazol-5-yl)biphenyl-4-yl)methoxy]quinoline hydrochloride], the IC50 in assay [1] (average, read-out: IC50 (concentration for 50% displacement of radiolabelled AII binding), average) was 17 nM. The same molecule gave an ED50 in assay [2] of 0.5 mg/kg.
